From US20250009737A1, “COMPOUNDS AND METHODS FOR THE TARGETED DEGRADATION OF ANDROGEN RECEPTOR” (Arvinas Operations, Inc., priority 2023, published 2025)
Read-outs that look alike come from different tables or passages of the source.

Columns and labels:
Format in all cases: in vitro ADME
OAT1 = biological target: T1, OAT1 (Homo sapiens, UniProt Q4U2R8); experiment: OAT1 uptake transporter inhibition in MDCKII or HEK293 cells; conditions: substrate Estrone-3-sulfate (E3S) (5 μM)
T1 construct: expressed in transfected cells; host or cells: MDCKII or HEK293
Protocol: (§1) In addition, the inhibition potential against efflux transporters (P-glycoprotein (Pgp) and breast cancer resistance protein (BCRP)) and uptake transporters (MATE1, MATE2-K, OATP1B1, OATP1B3, OAT1, OAT3, and OCT2) was assessed using single transporter over-expressed cell monolayers (MDCK II or HEK293) or inside-out vesicles.
(§2) The potential of Compound A to inhibit Pgp or BCRP was tested for bidirectional transport of the probe substrates in Pgp or BCRP-expressed MDCKII and control monolayers at Compound A concentrations of 0.07-5 μM. Pgp and BCR inhibition were tested in inside-out membrane vesicles prepared from HEK293 overexpressing human Pgp and BCR at concentrations of 0.01-9 μM Compound A in the presence of 4 mM MgATP or MgAMP.

CYP3A4 mRNA = CYP3A4 mRNA induction in cryopreserved human hepatocytes; conditions: for CYP3A4 mRNA induction, % PC: % of positive control response; for CYP3A4 mRNA Fold induction: human hepatocytes, maximal
CYP3A5 = CYP3A5 (Homo sapiens, UniProt P20815); experiment: Incubation with recombinant human CYP3A5
Protocol: (§3) Metabolite profiling was conducted in incubations of Compound A (2 and 10 μM) with HLM (up to 60 min), human hepatocyte suspension (up to 240 min) and human plasma (up to 360 min). In addition, Compound A (2 μM) was incubated with recombinant human CYP enzymes CYP1A2, CYP2A6, CYP2B6, CYP2C8, CYP2C9, CYP2C19, CYP2D6, CYP2E1, CYP3A4 and CYP3A5.
(§4) The DDI potential of Compound A as a victim via CYP mediated pathways was examined in HLM, human hepatocyte suspensions, and human recombinant CYP enzymes.

CYP2C8 = biological target: T2, CYP2C8 (Homo sapiens, UniProt P10632); experiment: Direct and time-dependent CYP2C8 inhibition in pooled human liver microsomes; conditions: pooled HLM, substrate Amodiaquine 2 μM
T2 construct: evaluated in pooled human liver microsomes (HLM); from tissue; host or cells: pooled human liver microsomes
Protocol: (§5) The induction potential of Compound A on CYP enzymes was assessed in cryopreserved human hepatocytes from three donors. Following treatment for with Compound A at concentrations of 0.03-30 μM for 48 hours, mRNA levels for CYP1A2, 2B6, 2C8, 2C9, 2C19, and 3A4 were determined by semiquantitative real-time polymerase chain reaction (PCR). Test article concentrations during 24-hour incubation were determined. The potential of Compound A to cause direct and time-dependent inhibition (TDI) of the activities of CYP1A2, 2B6, 2C8, 2C9, 2C19, 2D6, and 3A4 was evaluated in pooled human liver microsomes (HLM) at 0.2-15 μM. Probe substrate concentrations around Km were used for direction inhibition and initial TDI assays. For TDI assay, Compound A was pre-incubated with pooled HLM with and without NADPH for 30 minutes prior to incubation with a single concentration of probe substrate.

BCRP = biological target: T3, BCRP (Homo sapiens, UniProt Q9UNQ0); experiment: BCRP inhibition, bidirectional transport in BCRP-expressed MDCKII monolayers; parameters: expressed in transfected cells; host or cells: MDCKII
T3 sequence (Q9UNQ0 1-655): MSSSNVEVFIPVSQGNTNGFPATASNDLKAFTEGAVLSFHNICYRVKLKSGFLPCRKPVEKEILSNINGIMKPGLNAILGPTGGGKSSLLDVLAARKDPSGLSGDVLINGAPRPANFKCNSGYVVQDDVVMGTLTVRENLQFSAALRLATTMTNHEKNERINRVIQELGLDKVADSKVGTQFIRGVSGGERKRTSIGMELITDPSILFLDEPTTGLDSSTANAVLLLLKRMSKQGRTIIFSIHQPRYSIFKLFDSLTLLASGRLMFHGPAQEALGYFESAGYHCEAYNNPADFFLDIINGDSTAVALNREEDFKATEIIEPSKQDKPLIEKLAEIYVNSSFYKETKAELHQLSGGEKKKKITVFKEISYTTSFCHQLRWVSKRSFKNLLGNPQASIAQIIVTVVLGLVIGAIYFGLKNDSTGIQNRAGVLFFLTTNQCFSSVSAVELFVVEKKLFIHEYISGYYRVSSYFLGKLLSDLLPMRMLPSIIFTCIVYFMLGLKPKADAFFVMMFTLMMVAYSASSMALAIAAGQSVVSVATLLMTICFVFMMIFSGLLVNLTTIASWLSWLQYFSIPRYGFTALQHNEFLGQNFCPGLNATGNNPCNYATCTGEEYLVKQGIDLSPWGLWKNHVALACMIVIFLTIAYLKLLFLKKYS
Protocol: as §1, §2

CYP2C19 mRNA = CYP2C19 mRNA induction in cryopreserved human hepatocytes; conditions: 48 hours
major recombinant CYPs = experiment: Incubation with recombinant human CYP enzymes; conditions: up to 25 min
Protocol: as §3, §4

[1] = Metabolite profiling using human plasma, HLM and human hepatocytes; conditions: human plasma
Protocol: as §3

[2] = test system: CYP1A2, 2B6, 2C8, 2C9, 2C19, 2D6, and 3A4; experiment: Direct and time-dependent inhibition of all CYPs tested in pooled human liver microsomes; conditions: HLM
Protocol: as §5

T2 sequence (P10632 whole entry): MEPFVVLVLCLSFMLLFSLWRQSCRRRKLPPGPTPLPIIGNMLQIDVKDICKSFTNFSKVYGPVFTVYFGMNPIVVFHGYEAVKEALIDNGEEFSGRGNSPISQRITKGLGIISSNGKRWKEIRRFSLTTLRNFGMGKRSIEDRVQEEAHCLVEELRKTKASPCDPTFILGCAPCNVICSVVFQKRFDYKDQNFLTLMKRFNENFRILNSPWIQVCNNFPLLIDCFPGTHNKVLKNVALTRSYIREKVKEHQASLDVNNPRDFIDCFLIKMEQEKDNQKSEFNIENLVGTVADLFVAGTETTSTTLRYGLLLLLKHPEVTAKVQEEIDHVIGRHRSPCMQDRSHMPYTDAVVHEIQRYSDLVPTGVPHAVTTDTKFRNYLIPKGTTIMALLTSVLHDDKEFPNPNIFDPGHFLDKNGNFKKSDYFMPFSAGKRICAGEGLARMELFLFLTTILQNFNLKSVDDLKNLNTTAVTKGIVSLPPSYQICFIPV
T1 sequence (Q4U2R8 whole entry): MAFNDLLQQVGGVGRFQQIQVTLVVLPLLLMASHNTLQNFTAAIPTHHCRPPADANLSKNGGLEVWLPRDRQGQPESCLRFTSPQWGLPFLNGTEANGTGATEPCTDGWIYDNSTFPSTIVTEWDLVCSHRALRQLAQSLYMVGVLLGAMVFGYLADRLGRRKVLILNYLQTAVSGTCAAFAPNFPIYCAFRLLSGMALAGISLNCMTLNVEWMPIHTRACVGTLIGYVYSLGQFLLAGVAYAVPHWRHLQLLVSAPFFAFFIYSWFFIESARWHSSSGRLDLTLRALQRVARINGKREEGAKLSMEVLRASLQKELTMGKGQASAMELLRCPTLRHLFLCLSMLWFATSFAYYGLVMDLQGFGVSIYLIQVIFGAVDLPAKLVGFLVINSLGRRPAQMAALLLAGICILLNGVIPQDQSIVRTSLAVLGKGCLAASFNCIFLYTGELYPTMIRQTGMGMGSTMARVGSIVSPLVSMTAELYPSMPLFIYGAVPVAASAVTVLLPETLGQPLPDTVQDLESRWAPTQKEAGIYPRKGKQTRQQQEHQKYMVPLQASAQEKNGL
CYP3A5, sequence (P20815 whole entry): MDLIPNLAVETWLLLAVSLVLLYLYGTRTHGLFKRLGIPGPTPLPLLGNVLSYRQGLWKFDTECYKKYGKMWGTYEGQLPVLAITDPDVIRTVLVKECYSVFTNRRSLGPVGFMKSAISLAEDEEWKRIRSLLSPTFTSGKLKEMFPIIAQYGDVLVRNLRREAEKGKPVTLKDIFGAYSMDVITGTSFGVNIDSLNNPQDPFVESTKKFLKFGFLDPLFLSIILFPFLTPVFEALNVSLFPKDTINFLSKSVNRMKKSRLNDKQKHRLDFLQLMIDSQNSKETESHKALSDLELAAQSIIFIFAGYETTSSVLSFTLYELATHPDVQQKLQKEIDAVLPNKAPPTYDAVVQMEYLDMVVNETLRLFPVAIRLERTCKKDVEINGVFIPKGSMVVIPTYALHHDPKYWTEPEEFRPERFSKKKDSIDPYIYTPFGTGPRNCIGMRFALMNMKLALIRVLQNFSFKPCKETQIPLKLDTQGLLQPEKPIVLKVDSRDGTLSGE

- IC50 (OAT1): > 3.75 µM
- CYP3A4 mRNA induction, % PC (CYP3A4 mRNA; Donor 1): 5 % PC
- CYP3A4 mRNA Fold induction (CYP3A4 mRNA; Donor 1): 8.8 Fold
- CYP3A4 mRNA induction, % PC (CYP3A4 mRNA; Donor 2): 6 % PC
- CYP3A4 mRNA Fold induction (CYP3A4 mRNA; Donor 2): 2.5 Fold
- CYP3A4 mRNA induction, % PC (CYP3A4 mRNA; Donor 3): 5 % PC
- CYP3A4 mRNA Fold induction (CYP3A4 mRNA; Donor 3): 3.3 Fold
- CYP3A4 mRNA induction, % of positive control response (CYP3A4 mRNA; all three donors, at 0.1-0.3 μM): 4-6%
- fold induction at 48 h (CYP3A4 mRNA; human, cryopreserved human hepatocytes, all three donors, at 0.1-0.3 μM, read-out: Maximal fold induction in CYP3A4 mRNA): 2.5 to 8.8
- Loss of Compound A in CYP3A5 (CYP3A5): ≤ 23%
- IC50 (CYP2C8; read-out: IC50, 30 min Pre-incubation): > 15 µM
- IC50 (CYP2C8; read-out: IC50, No Pre-incubation): > 15 µM
- inhibition at 1 µM (BCRP; BCRP-expressed MDCKII cell monolayers, probe Prazosin (1 μM), Monolayers, substrate Prazosin (1 μM), read-out: Maximal % Inhibition): 54%
- IC50 (BCRP; monolayer assays): 1.55 µM
- CYP2C19 mRNA Fold induction (CYP2C19 mRNA; Donor 1, 0.03-30 μM): <2 Fold
- CYP2C19 mRNA Fold induction (CYP2C19 mRNA; Donor 2, 0.03-30 μM): <2 Fold
- CYP2C19 mRNA Fold induction (CYP2C19 mRNA; Donor 3, 0.03-30 μM): <2 Fold
- Stability in major recombinant CYPs (major recombinant CYPs): relatively stable
- Major metabolic pathway [1]: hydrolysis (M825/1)
- Direct inhibition, maximal inhibition ([2]; all CYPs, up to 15 µM tested): ≤ 12%
- TDI (time-dependent inhibition) ([2]; all CYPs, up to 15 µM tested): ≤ 15%
SMILES: COc1cc(O[C@H]2C(C)(C)[C@H](NC(=O)c3ccc(N4CCC(CN5CCN(c6ccc(C(=O)N[C@H]7CCC(=O)NC7=O)c(F)c6)CC5)CC4)cc3)C2(C)C)ccc1C#N [Compound A, 4-(4-((1-(4-(((1R,3R)-3-(4-cyano-3-methoxyphenoxy)-2,2,4,4-tetramethylcyclobutyl)carbamoyl)phenyl)piperidin-4-yl)methyl)piperazin-1-yl)-N—((S)-2,6-dioxopiperidin-3-yl)-2-fluorobenzamide]
- Direct or time-dependent inhibition ([2]; any of the CYP isoforms, 0.2-15 µM): no direct or time-dependent inhibition was observed
